From PMC5978685, “Design, Synthesis, and Evaluation of Novel Immunomodulatory Small Molecules Targeting the CD40–CD154 Costimulatory Protein-Protein Interaction” (Molecules : A Journal of Synthetic Chemistry and Natural …, 2018) come the findings set out here.

Entries after “also recorded” stand apart in the source; their conditions may differ. Where two headings read alike, the source gives them in different places. Some results are limits rather than exact numbers.

A word on the IC50: it is the concentration needed to halve the response being measured.

The test system of assay [1] is alloantigen-induced T cell response in draining popliteal lymph node. The experiment in a line: alloantigen-induced T cell expansion in draining lymph node. The settings on record: Balb/c mice, DBA-2 splenocytes in footpad; 10–20 mg/kg s.c. b.i.d.; p < 0.0001 vs vehicle. The class given is in vivo, mouse (Balb/c). The method, then: The most promising compounds of the present series were evaluated for in vivo activity using the same model of alloantigen-induced T cell expansion in the draining lymph nodes (DLNs) that was described before. This procedure involved injection of splenocytes isolated from DBA-2 mice into the footpad of Balb/c recipients. Within three full days, this causes a significant increase in the number of cells in the draining popliteal lymph node, and this is inhibited by compounds with immunosuppressive activity.
The ability to inhibit alloantigen-induced T cell response in a draining lymph node was tested as described before. In brief, BALB/c mice (10–12 weeks old, female) received a footpad injection of 1 × 10^7 splenocytes isolated from DBA-2 mice (10–12 weeks old, male). CD154 antibody (MR-1; 20 mg/kg, day −1 and 0) or test compounds (20–60 mg/kg; b.i.d. from day −1 to 3, in 20% HPβCD) were administered s.c., and the draining popliteal lymph nodes (DLNs) were collected 3 days after the alloantigen challenge. DLN cells were counted and data are shown as mean ± SD (n = 3–4 per group).
(§1) All binding inhibition and cell assays were tested in duplicate or triplicate per plates, and assays were performed as at least three independent experiments. As before, binding and cytotoxicity data were converted to percent inhibition and fitted with standard log inhibitor vs. normalized response models using nonlinear regression in GraphPad Prism (GraphPad, La Jolla, CA, USA) to establish half-maximal (median) inhibitory concentration (IC50) or median lethal concentration (LC50) values. Cell assay data were fitted with a similar model that also allowed for a variable slope using the log inhibitor vs. normalized response (variable slope) model from Prism with a Hill slope (n) shared across all compounds. Cell assays and draining lymph node data were analyzed by one-way repeated-measures analysis of variance (ANOVA) followed by Dunnett’s multiple comparison test as a post hoc test for individual differences using GraphPad Prism and a significance level of p < 0.05 for all comparisons.
Figure 6 Inhibition of alloantigen-induced T cell response in a draining lymph node by compounds 6, 15, 18, and 19. Mice (Balb/c) received a footpad injection of allogeneic splenocytes (isolated from DBA-2 mice) and were treated with anti-CD154 antibody (MR-1; 20 mg/kg, day −1 and 0) or compounds as shown (10–40 mg/kg, b.i.d. from day −1 to 3, s.c. in 20% HPβCD). Draining (popliteal) lymph nodes were collected three days after the alloantigen challenge and cells were counted. Data are shown as mean ± SD. Significant differences compared to vehicle-treated controls are indicated by asterisks (**** p < 0.0001; one-way ANOVA followed by Dunnett’s multiple comparison test).

In another assay the target is T1, OX40–OX40L (Homo sapiens, UniProt P23510).
T1 construct: purchased Enzo Life Sciences
T1 sequence (P23510 51-183 limits assumed): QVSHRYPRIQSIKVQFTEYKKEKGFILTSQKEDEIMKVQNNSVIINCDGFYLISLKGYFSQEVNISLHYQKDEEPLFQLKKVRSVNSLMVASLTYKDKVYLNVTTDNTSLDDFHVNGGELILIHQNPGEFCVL
The experiment in a line: cell-free ELISA-type binding inhibition assay, OX40–OX40L. The procedure:
(§2) In parallel with the CD40–CD154 assay, the ability of these compounds to inhibit other TNFSFR–TNFSF PPIs, including OX40–OX40L, BAFFR–BAFF, and TNF-R1–TNF-α, was also assessed (Figure 3B–D).
(§3) Binding inhibition assays were performed in a 96-well cell-free format as described before. Briefly, microtiter plates (Nunc F Maxisorp, 96-well; Thermo Fisher Scientific, Waltham, MA, USA) were coated overnight at 4 °C with 100 μL/well of Fc-conjugated receptors diluted in PBS pH 7.2. This was followed by blocking with 200 μL/well of blocking solution (PBS pH 7.2, 0.05% Tween-20, 1% BSA) for 1 h at RT. Then, plates were washed twice using washing solution (PBS pH 7.4, 0.05% Tween-20) and tapped dry before the addition of the appropriate FLAG tagged ligands along with different concentrations of tested dyes diluted in binding buffer (100 mM HEPES, 0.005% BSA pH 7.2) to give a total volume of 100 μL/well. After 1 h incubation, three washes were conducted, and anti-FLAG HRP conjugate was used to detect the bound FLAG-tagged ligand. Plates were washed four times before the addition of 120 μL/well of HRP substrate TMB (3,3′,5,5′-tetramethylbenzidine) and kept in the dark for up to 15 min. The reaction was stopped using 30 μL of 1M H2SO4, and the absorbance value was read at 450 nm. The concentrations of receptors used were 0.3 μg/mL for CD40, TNF-R1, and BAFFR; 0.6 μg/mL for OX40. The concentrations of the ligands were fixed at 0.02 μg/mL for CD154 and TNF-α, 0.06 μg/mL for OX40L, and 0.03 μg/mL for BAFF. These values were selected following preliminary testing to optimize response (i.e., to produce a high-enough signal at conditions close to half-maximal response, EC50). […] To verify that inhibition is not due to colloidal aggregation, CD40 binding inhibition was also measured in the presence of the non-ionic detergent Triton-X 100 (0.01%), as recommended for the detection of such effects.
as §1
(§4) Data are (counterclockwise) for human CD40–CD154 (CD40L) (A); OX40–OX40L (B); BAFFR–BAFF (C); and TNF-R1–TNFα (D) and were fitted with standard binding curves. Data are average ± SD (normalized to percent binding) for n = 3 independent experiments with duplicates for each condition.
On the technique in general: An ELISA detects its analyte on a solid surface through an enzyme-linked reagent.

The next assay concerns the target T2, BAFFR–BAFF (Homo sapiens, UniProt Q9Y275).
T2 construct: purchased Enzo Life Sciences
In words: cell-free ELISA-type binding inhibition assay, BAFFR–BAFF. The method, then: as §2, §3, §1, §4

The next assay deals with T3, TNF-R1–TNFα (Homo sapiens, UniProt P01375).
T3 construct: purchased Enzo Life Sciences
The experiment in a line: cell-free ELISA-type binding inhibition assay, TNF-R1–TNFα. The method, then:
as §2, §3, §1, §4

Setting [2] is: cell-free TNF-R1–TNFα binding inhibition, read-out: TNF IC50.

T3 sequence (P01375 85-233 limits assumed): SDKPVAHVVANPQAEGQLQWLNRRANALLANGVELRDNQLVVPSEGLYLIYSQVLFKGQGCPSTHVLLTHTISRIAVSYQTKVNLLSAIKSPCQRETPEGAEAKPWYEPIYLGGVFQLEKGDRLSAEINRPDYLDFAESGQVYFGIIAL
T2 sequence (Q9Y275 134-285 limits assumed): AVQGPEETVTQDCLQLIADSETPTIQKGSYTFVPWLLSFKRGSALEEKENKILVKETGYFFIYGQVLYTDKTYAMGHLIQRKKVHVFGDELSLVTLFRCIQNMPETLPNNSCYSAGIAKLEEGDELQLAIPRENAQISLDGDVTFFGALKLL

In the case of `O=C(Nc1ccc(-c2ccc(C(=O)Nc3cccc4cccc(S(=O)(=O)O)c34)cc2)cc1)c1ccc([N+](=O)[O-])cc1` [Compound 6, 8-(4′-(4-Nitrobenzamido)biphenyl-4-ylcarboxamido)naphthalene-1-sulfonic acid], in assay [1], the “inhibition of alloantigen-induced T cell expansion in draining lymph node” value is reported as “highly significant inhibitory activity; also recorded: inhibited the alloantigen-induced T cell response in this model in statistically significant manner”. The IC50 is 318 µM on OX40–OX40L, 0.328 µM at BAFFR–BAFF and greater than 1000 µM on TNF-R1–TNFα (setting [2]).
For `O=C(Nc1ccc(-c2ccc(C(=O)Nc3cccc4cccc(S(=O)(=O)O)c34)cc2)nc1)c1ccc([N+](=O)[O-])cc1` [Compound 18, 8-(4-(5-(4-Nitrobenzamido)pyridin-2-yl)benzamido)naphthalene-1-sulfonic acid], in that order: “highly significant inhibitory activity; also recorded: inhibited the alloantigen-induced T cell response in this model in statistically significant manner”, 5.48 µM, 8.07 µM and 46.9 µM.
For `COC(=O)c1ccc(-c2ccc(C(=O)Nc3ccc(-c4ccc(C(=O)Nc5cccc6cccc(S(=O)(=O)O)c56)cc4)cc3)cc2)cc1` [Compound 15, 8-(4′-(4′-(Methoxycarbonyl)-[1,1′-biphenyl]-4-carboxamido)-[1,1′-biphenyl]-4-carboxamido)naphthalene-1-sulfonic acid], the “inhibition of alloantigen-induced T cell expansion in draining lymph node” value in assay [1] was “highly significant inhibitory activity; also recorded: inhibited the alloantigen-induced T cell response in this model in statistically significant manner”. Moreover, the IC50 on OX40–OX40L is 1.01 µM; at BAFFR–BAFF, 1.52 µM; on TNF-R1–TNFα (setting [2]), 26.5 µM; on TNF-R1–TNFα (cell-free binding inhibition, read-out: TNF-R1–TNF IC50), 26.5 µM.
